Experimental data taken from ChEMBL document CHEMBL1123368, “Plant antitumor agents. 23. Synthesis and antileukemic activity of camptothecin analogues” (1986).
The source made the active and inactive calls. The rule behind the calls is not given here.

Tests used:
P338 [1] = test: Antitumor activity against P-338 leukemia in mice.; format: functional, Mus musculus
L1210 leukemia (mouse) [2] = test: Compound was evaluated for antitumor activity against L1210 leukemia in mice at the dose of 40 mg/kg; T/C=Survival time of treated/control animals*100
P338 [3] = test: Compound was evaluated for antitumor activity against P-338 leukemia in mice, active dose range of the compound; Lowest dose administered, dose range was 2.5-40 mg/kg; format: functional, Mus musculus
P338 [4] = test: Compound was evaluated for antitumor activity against P-338 leukemia in mice, active dose range of the compound; Lowest dose to highest dose administered, dose range was 2.5-40 mg/kg; format: functional, Mus musculus
P338 [5] = test: Compound was evaluated for antitumor activity against P-338 leukemia in mice.a ctive dose range was 8-32 mg/kg; format: functional, Mus musculus
P338 [6] = test: Compound was evaluated for antitumor activity against P-338 leukemia in mice at the dose of 32 mg/kg; T/C=Survival time of treated/control animals*100; format: functional, Mus musculus
P338 [7] = test: Compound was evaluated for antitumor activity against P-338 leukemia in mice, active dose range of the compound; Lowest dose to highest dose administered, dose range was 2-32 mg/kg; format: functional, Mus musculus
P338 [8] = test: Compound was evaluated for antitumor activity against P-338 leukemia in mice at the dose of 16 mg/kg; T/C=Survival time of treated/control animals*100; format: functional, Mus musculus
P338 [9] = test: Compound was evaluated for antitumor activity against P-338 leukemia in mice at the dose of 1.6 mg/kg; T/C=Survival time of treated/control animals*100; format: functional, Mus musculus
P338 [10] = test: Compound was evaluated for antitumor activity against P-338 leukemia in mice, active dose range of the compound; Lowest dose administered, dose range was 0.4-1.6 mg/kg; format: functional, Mus musculus
L1210 leukemia (mouse) [11] = test: Compound was evaluated for antitumor activity against L1210 leukemia in mice at the dose of 2.5 mg/kg; T/C=Survival time of treated/control animals*100
P338 [12] = test: Compound was evaluated for antitumor activity against P-338 leukemia in mice, active dose range of the compound; Lowest dose administered, dose range was 1.25-2.5 mg/kg; format: functional, Mus musculus
P338 [13] = test: Compound was evaluated for antitumor activity against P-338 leukemia in mice at the dose of 20 mg/kg; T/C=Survival time of treated/control animals*100; format: functional, Mus musculus
L1210 leukemia (mouse) [14] = test: Antitumor activity against L1210 leukemia in mice
P338 [15] = test: Compound was evaluated for antitumor activity against P-338 leukemia in mice, active dose range of the compound; Lowest dose to highest dose administered, dose range was 5-40 mg/kg; format: functional, Mus musculus
P338 [16] = test: Compound was evaluated for antitumor activity against P-338 leukemia in mice; T/C=Survival time of treated/control animals*100; Inactive; format: functional; details: Mus musculus
P338 [17] = test: Compound was evaluated for antitumor activity against P-338 leukemia in mice, active dose range of the compound; Lowest dose to highest dose administered, dose range was 7.5-60 mg/kg; format: functional, Mus musculus
P338 [18] = test: Compound was evaluated for antitumor activity against P-338 leukemia in mice at the dose of 60 mg/kg; T/C=Survival time of treated/control animals*100; format: functional, Mus musculus
P338 [19] = test: Compound was evaluated for antitumor activity against P-338 leukemia in mice, active dose range of the compound; Lowest dose administered, dose range was 7.5-15.5 mg/kg; format: functional, Mus musculus
P338 [20] = test: Compound was evaluated for antitumor activity against P-338 leukemia in mice. toxic dose range of the compound; Highest dose administered; format: functional, Mus musculus
P338 [21] = test: Compound was evaluated for antitumor activity against P-338 leukemia in mice at the dose of 25 mg/kg; T/C=Survival time of treated/control animals*100; format: functional, Mus musculus
P338 [22] = test: Compound was evaluated for antitumor activity against P-338 leukemia in mice, active dose range of the compound; Lowest dose administered, dose range was 3.12-25 mg/kg; format: functional, Mus musculus
P338 [23] = test: Compound was evaluated for antitumor activity against P-338 leukemia in mice, active dose range of the compound; Lowest dose administered, dose range was 4-16 mg/kg; format: functional, Mus musculus
P338 [24] = test: Compound was evaluated for antitumor activity against P-338 leukemia in mice at the dose of 8 mg/kg; T/C=Survival time of treated/control animals*100; format: functional, Mus musculus
P338 [25] = test: Compound was evaluated for antitumor activity against P-338 leukemia in mice; T/C=Survival time of treated/control animals *100; Inactive; format: functional; details: Mus musculus
P338 [26] = test: Compound was evaluated for antitumor activity against P-338 leukemia in mice at the dose of 2 mg/kg; T/C=Survival time of treated/control animals*100; format: functional, Mus musculus
P338 [27] = test: Compound was evaluated for antitumor activity against P-338 leukemia in mice, active dose range of the compound; Lowest dose administered, dose range was 2.0-4.0 mg/kg; format: functional, Mus musculus
L1210 leukemia (mouse) [28] = test: Compound was evaluated for antitumor activity against L1210 leukemia in mice, active dose range of the compound; Lowest dose administered, dose range was 2.5-5 mg/kg
P338 [29] = test: Compound was evaluated for antitumor activity against P-338 leukemia in mice at the dose of 4 mg/kg; T/C=Survival time of treated/control animals*100; format: functional, Mus musculus
P338 [30] = test: Compound was evaluated for antitumor activity against P-338 leukemia in mice, toxic dose range of the compound; format: functional, Mus musculus
P338 [31] = test: Compound was evaluated for antitumor activity against P-338 leukemia in mice at the dose of 3.1 mg/kg; T/C=Survival time of treated/control animals*100; format: functional, Mus musculus
P338 [32] = test: Compound was evaluated for antitumor activity against P-338 leukemia in mice, active dose range of the compound; Lowest dose administered, dose range was 0.4-3.1 mg/kg; format: functional, Mus musculus
L1210 leukemia (mouse) [33] = test: Compound was evaluated for antitumor activity against L1210 leukemia in mice, active dose range of the compound; Lowest dose administered, dose range was 2.5-20 mg/kg
L1210 leukemia (mouse) [34] = test: Compound was evaluated for antitumor activity against L1210 leukemia in mice at the dose of 10 mg/kg; T/C=Survival time of treated/control animals*100

CC[C@@]1(O)C(=O)OCc2c1cc1n(c2=O)Cc2cc3cccc([N+](=O)[O-])c3nc2-1
No. of cures (P338 [1]): 0 | T/C (L1210 leukemia (mouse) [2]): 151% | Active dose range (P338 [3]): 2.5 mg/kg

CC[C@@]1(O)C(=O)OCc2c1cc1n(c2=O)Cc2cc3c(NC(C)=O)c(O)ccc3nc2-1
No. of cures (P338 [1]): 0 | Active dose range (P338 [4]): 2.5 mg/kg | T/C (L1210 leukemia (mouse) [2]): 220%

CCC1(O)C(=O)OCc2c1cc1n(c2=O)Cc2cc3cccnc3nc2-1 (stereo not drawn)
Active dose range (P338 [5]): 8 mg/kg | No. of cures (P338 [1]): 0 | T/C (P338 [6]): 175%

CCN(CC)CCOc1ccc2nc3c(cc2c1)Cn1c-3cc2c(c1=O)COC(=O)[C@]2(O)CC.Cl
No. of cures (P338 [1]): 0 | Active dose range (P338 [7]): 2 mg/kg | T/C (P338 [8]): 183%

CC[C@@]1(O)C(=O)OCc2c1cc1n(c2=O)Cc2cc3cc(OC)ccc3nc2-1
T/C (P338 [9]): 167% | Active dose range (P338 [10]): 0.4 mg/kg | No. of cures (P338 [1]): 0

CCC1(O)C(=O)OCc2c1cc1n(c2=O)Cc2cc3cnccc3nc2-1 (stereo not drawn)
No. of cures (P338 [1]): 0 | T/C (L1210 leukemia (mouse) [11]): 162% | Active dose range (P338 [12]): 1.25 mg/kg

CC[C@@]1(O)C(=O)OCc2c1cc1n(c2=O)Cc2cc3c([N+](=O)[O-])c(OC)ccc3nc2-1
No. of cures (P338 [1]): 0 | Active dose range (P338 [4]): 2.5 mg/kg | T/C (L1210 leukemia (mouse) [2]): 160%

CC[C@@]1(O)C(=O)OCc2c1cc1n(c2=O)Cc2cc3c(N)c(OC)ccc3nc2-1
No. of cures (P338 [1]): 0 | T/C (L1210 leukemia (mouse) [2]): 186%

CC[C@@]1(O)C(=O)OCc2c1cc1n(c2=O)Cc2cc3c([N+](=O)[O-])c(O)ccc3nc2-1
No. of cures (P338 [1]): 0 | Active dose range (P338 [4]): 2.5 mg/kg | T/C (P338 [13]): 131%

CCC1(O)C(=O)OCc2c1cc1n(c2=O)Cc2cc3cc(NC(C)=O)ccc3nc2-1 (stereo not drawn)
No. of cures (P338 [1]): 1 | KE (log cell kill) (L1210 leukemia (mouse) [14]): > 5.86 | Active dose range (P338 [15]): 5 mg/kg | T/C (L1210 leukemia (mouse) [2]): 318%

CC[C@](O)(C(=O)[O-])c1cc2n(c(=O)c1CO)Cc1cc3ccccc3nc1-2.[Na+]
T/C (L1210 leukemia (mouse) [2]): 215%

CC[C@@]1(O)C(=O)OCc2c1cc1n(c2=O)Cc2cc3cc(OCC(=O)O)ccc3nc2-1
T/C (P338 [16]): inactive

CC[C@@]1(O)C(=O)OCc2c1cc1n(c2=O)Cc2cc3cccc(N)c3nc2-1
T/C (P338 [16]): inactive

CCC1(O)C(=O)OCc2c1cc1n(c2=O)Cc2cc3ccc(O)cc3nc2-1 (racemic)
No. of cures (P338 [1]): 3 | Active dose range (P338 [17]): 7.5 mg/kg | T/C (P338 [18]): 357%

CCC1(O)C(=O)OCc2c1cc1n(c2=O)Cc2cc3cc([N+](=O)[O-])ccc3nc2-1 (racemic)
No. of cures (P338 [1]): 1 | KE (log cell kill) (L1210 leukemia (mouse) [14]): > 5.86 | Active dose range (P338 [19]): 7.5 mg/kg

CCC1(O)C(=O)OCc2c1cc1n(c2=O)Cc2cc3sccc3nc2-1 (racemic)
No. of cures (P338 [1]): 0 | Toxic dose (P338 [20]): 50 mg/kg | T/C (P338 [21]): 193% | Active dose range (P338 [22]): 3.12 mg/kg

CCC1(O)C(=O)OCc2c1cc1n(c2=O)Cc2cc3cc(N)ccc3nc2-1 (racemic)
No. of cures (P338 [1]): 3 | KE (log cell kill) (L1210 leukemia (mouse) [14]): > 5.86 | Toxic dose (P338 [20]): 32 mg/kg | Active dose range (P338 [23]): 4 mg/kg | T/C (P338 [24]): 329%

CCC1(O)C(=O)OCc2c1cc1n(c2=O)Cc2cc3cc(OC)c(OC)cc3nc2-1 (racemic)
Toxic dose (P338 [20]): >50 mg/kg | T/C (P338 [25]): inactive

CCC1(O)C(=O)OCc2c1cc1n(c2=O)Cc2cc3cc4c(cc3nc2-1)OCO4 (racemic)
T/C (P338 [26]): 325% | No. of cures (P338 [1]): 2 | KE (log cell kill) (L1210 leukemia (mouse) [14]): > 5.97 | Active dose range (P338 [27]): 2 mg/kg

CC[C@@]1(O)C(=O)OCc2c1cc1n(c2=O)Cc2cc3c(N)cccc3nc2-1 [9-AMINOCAMPTOTHECIN]
No. of cures (P338 [1]): 4 | KE (log cell kill) (L1210 leukemia (mouse) [14]): > 5.86 | T/C (L1210 leukemia (mouse) [11]): 348% | Active dose range (L1210 leukemia (mouse) [28]): 2.5 mg/kg

CC[C@@]1(O)C(=O)OCc2c1cc1n(c2=O)Cc2cc3ccccc3nc2-1 [CAMPTOTHECIN]
T/C (P338 [29]): 197%

CC[C@@]1(O)C(=O)OCc2c1cc1n(c2=O)Cc2cc3cc(O)ccc3nc2-1 [HYDROXYCAMPTOTHECIN]
No. of cures (P338 [1]): 0 | Toxic dose (P338 [30]): 6.25 mg/kg | T/C (P338 [31]): 297% | Active dose range (P338 [32]): 0.4 mg/kg

CC[C@@]1(O)C(=O)OCc2c1cc1n(c2=O)Cc2cc3c([N+](=O)[O-])cccc3nc2-1 [RUBITECAN]
No. of cures (P338 [1]): 5 | KE (log cell kill) (L1210 leukemia (mouse) [14]): > 5.86 | Toxic dose (P338 [20]): 40 mg/kg | Active dose range (L1210 leukemia (mouse) [33]): 2.5 mg/kg | T/C (L1210 leukemia (mouse) [34]): 348%
